Laboratory results from patent US20240115588A1, “USE OF PROTEASOME INHIBITORS IN THE TREATMENT OF CORONAVIRUS INFECTIONS” (priority 2021, published 2024).

What was measured:
[1] = molecular target: β5 chymotrypsin-like subunit of the 20S proteolytic site of the proteasome (Homo sapiens, UniProt P28074); details: proteasome inhibitor dissociation; cited from earlier work
[2] = test system: 2019 Novel Coronavirus, Isolate USA-WA1/2020 (SARS-CoV-2); experiment: In vitro efficacy in Calu-3 lung cells, immunostaining assay; type: cell-based
[3] = test system: 2019 Novel Coronavirus, Isolate USA-WA1/2020 (SARS-CoV-2); experiment: In vitro efficacy in Vero E6 cells, immunostaining assay (second testing series); type: cell-based; details: for EC50: Severe acute respiratory syndrome coronavirus 2, Vero C1008
[4] = test system: SARS-CoV-2; details: cited from earlier work; for dose for complete prevention of CPE: Vero E6, shorter drug treatment time, bortezomib could not completely prevent CPE at these doses
[5] = cited from earlier work
[6] = test system: human plasma protein; details: IV administered bortezomib; average; cited from earlier work
[7] = test system: Vero E6 cells; details: cited from earlier work
[8] = test system: Vero E6 cells; details: ranking of drugs for expected efficacy against SARS-CoV-2; cited from earlier work
[9] = Vero E6, shorter treatment schedule

CC(C)C[C@H](NC(=O)CNC(=O)c1cc(Cl)ccc1Cl)B(O)O [Ixazomib]
dissociation half-life [1]: 0.3 h

CCC(CC)COC(=O)[C@H](C)N[P@](=O)(OC[C@H]1O[C@@](C#N)(c2ccc3c(N)ncnn23)[C@H](O)[C@@H]1O)Oc1ccccc1 [Remdesivir]
EC50 ([2]; Severe acute respiratory syndrome coronavirus 2, Calu-3): 252 nM
EC50 [3]: 1150 nM

CC(C)C[C@H](NC(=O)[C@H](Cc1ccccc1)NC(=O)c1cnccn1)B(O)O [Bortezomib]
EC50 ([2]; Calu-3 lung cells, MOI 0.001 TCID50/cell, immunostaining at 48±6 hours post inoculation, preliminary results, read-out: EC50): 6.9 nM
EC100 ([2]; Calu-3 lung cells, whether EC100 was achieved): Achieved
EC50 ([2]; Severe acute respiratory syndrome coronavirus 2, Calu-3, Calu-3 lung cells, MOI 0.001 TCID50/cell, immunostaining at 48±6 hours post inoculation, preliminary results, read-out: EC50): 7.8 nM
EC50 ([3]; Vero E6 cells, MOI 0.001 TCID50/cell, immunostaining at 48±6 hours post inoculation, read-out: EC50): 9.92 nM
EC100 ([3]; Vero E6 cells, whether EC100 was achieved): Achieved
dissociation half-life [1]: 1.83 h
dose for complete prevention of CPE [4]: > 30 µM
doses at which inhibition of virus-induced cytopathic effects was observed [4, 9]: > 30 µM
concentration inhibiting virus-induced cytopathic effects (CPE) ([4]; Vero E6 cells infected with SARS-CoV-2): 0.05 µM
bioavailability ([5]; IV administration or subcutaneous injection): 100%
time to peak plasma levels ([5]; after IV administration): approximately 5 minutes
in vitro binding to human plasma protein [6]: 83%
doses at which cytotoxicity was observed [7, 9]: > 30 µM
concentration at which cytotoxicity was observed ([7]; Vero E6 cells): 2 nM
category in algorithmic prediction study [8]: cytotoxic drug

CCN(CC)CCCC(C)Nc1ccnc2cc(Cl)ccc12 (stereo not shown) [chloroquine]
dose for complete prevention of CPE [4]: 15 µM
